Laboratory results: patent US11571426B2, “Compositions for preventing or treating lupus” (CHONG KUN DANG PHARMACEUTICAL CORP., priority 2017, dated 2023)
Marks after values point to notes of the source that are not given here.

Assays:
NZB/W F1 female mice [1] = experiment: Weight recovery in SLE model mouse; type: in vivo
Experimental: (§1) 80 NZB/W F1 female mice (four weeks old) were purchased from Jackson Laboratory and maintained in an SPF breeding room with five mice per cage. Their weight and urine protein were measured at 24 weeks after birth (right before administration), and then all the animals except those having too much urine protein were divided into groups as shown in a table 2 below such that the urine protein and weight might be evenly distributed among the groups.
(§2) Then, the mice were administered as described in the table 2 once a day for about 19 weeks from 24 weeks after birth to 42 weeks after birth.

NZB/W F1 female mice [2] = experiment: Survival rate in SLE model mouse; type: in vivo; details: for survival rate: 42 weeks after birth
Experimental: as §1, §2
An NZB/W F1 female mouse is used as a human SLE disease model. If not treated at all, it is known that this model falls dead all after 12 months or so (about 52 weeks old) due to immune-complex glomerulonephritis.

NZB/W F1 female mice [3] = experiment: Proteinuria and UP/C in SLE model mouse; type: in vivo; details: for incidence rate of severe proteinuria of 300 mg/dl or more: 42 weeks old
Experimental: as §1, §2
The fresh urine of mice was collected before and after administration every two weeks, while blood collection was performed before and after administration every four weeks. The serum was prepared by centrifugation of the collected blood and then kept at −70° C.
A urine creatinine concentration was obtained by diluting the urine 100-fold, then measuring the concentration thereof by means of a serum chemistry analyzer (Dri-CHEM 3000 colorimetric analyzer, Fujifilm), and then calibrating the measured value using a dilution factor.

NZB/W F1 female mice [4] = experiment: IgG and C3 depositions in glomerulus (fluorescence immunostaining); type: in vivo, mouse
Experimental: as §1, §2
To identify a therapeutic effect of the inventive pharmaceutical composition on kidney in the SLE disease model, a degree of IgG and C3 depositions in glomerulus was measured.
With regard to a remaining half of the left kidney collected during the autopsy performed in Example 9, a frozen tissue block was prepared for a frozen section by means of an OCT compound, and then IgG and C3 fluorescence immunostaining was performed by means of a method known in the technical field to which the present invention pertains.
Specifically, the frozen tissue was sectioned in a thickness of 4 μm, then fixed in cold acetone for five minutes, and then washed in phosphate buffered saline (PBS) twice for five minutes. To get rid of a non-specific reaction, a resulting tissue was blocked by means of the PBS solution with the addition of 1% bovine serum albumin and 0.05% tween-20 for 30 minutes, and then reacted at room temperature for one hour by means of FITC-conjugated goat anti-mouse IgG antibodies (1:200, AP308F, Merck Millipore) or FITC-conjugated goat anti-mouse C3 antibodies (1:100, Cappel 55500, MP Bio). After that, the resulting tissue was washed with the PBS for five minutes three times, then covered with a cover glass by means of a mounting medium including DAPI, and then observed by means of a confocal laser scanning microscopy (LSM 700, ZEISS).

NZB/W F1 female mice [5] = experiment: Ratio of PreB and ProB cells in marrow (FACS); type: in vivo, mouse; details: experimental groups vs control group
Experimental: as §1, §2
A ratio of pro B (B220+, CD43+) and pre B (B220+, CD43−) cells in mouse marrow cells was measured by means of FACS. To that end, the marrow cells were obtained by flushing a femur with PBS comprising 5% BSA. After that, red blood cells were hemolyzed by means of EL buffer, then washed with FACS buffer (5% BSA/PBS), and then stained with FITC-conjugated anti-mouse CD43 antibodies (ebioscience) and PE-conjugated anti-mouse […] antibodies (ebioscience), such that a ratio of Pre B (B220+CD43-) and Pro B (B220+CD43+) cells was measured.

NZB/W F1 female mice [6] = experiment: Immunoglobulin isotypes in serum (Luminex); type: in vivo, mouse; details: 50 mg/kg dosed group vs negative control
Experimental: as §1, §2
A concentration of immunoglobulin isotypes (IgG1, IgG2a, IgG2b, IgG3 and IgM) in the serum obtained during the mouse autopsy was measured by means of Luminex assay kit for mouse isotype (R&D systems, Minneapolis, Minn.).

NZB/W F1 female mice [7] = experiment: Serum chemistry after long-term administration; type: in vivo, mouse; details: serum at autopsy
Experimental: as §1, §2
Data obtained from groups were compared using a Kruskal-Wallis (†p<0.05), *p<0.05 versus C group (Mann-Whitney U-test), ALT: alanine aminotransferase, AST: aspartate aminotransferase, ALP: alkaline phosphatase, TBIL: total bilirubin, TCHOL: total cholesterol, TG: triglyceride, TP: total protein, CPK: creatine phosphokinase)

NZB/W F1 female mice [8] = experiment: T cell populations in spleen (FACS) in SLE disease mouse; type: in vivo

With `O=C(NO)c1ccc(CN(C(=O)N2CCOCC2)c2cccc(C(F)(F)F)c2)cc1` [Compound 374, N-(4-(hydroxycarbamoyl)benzyl)-N-(3-(trifluoromethyl)phenyl)morpholine-4-carboxamide] the weight (NZB/W F1 female mice [1]; 10 mg/kg dosed group, from about 40 weeks) was “recovered to the same level as that of the positive control group”, the weight recovery (NZB/W F1 female mice [1]; 30 and 50 mg/kg dosed groups, vs positive control) was “more excellent weight recovery effect” and the survival rate (NZB/W F1 female mice [2]; 10 mg/kg dosed group) was “about 73.3%”. For the same compound, the survival rate (NZB/W F1 female mice [2]; 30 mg/kg dosed group) was “about 93.3%”, the survival rate (NZB/W F1 female mice [2]; 50 mg/kg dosed group) was “about 93.3%” and the survival rate pattern (NZB/W F1 female mice [2]; experimental groups (10, 30, 50 mg/kg), vs negative control) was “better recovery pattern”. The “incidence rate of severe proteinuria of 300 mg/dl or more” value (from here on “incidence rate … of 300 mg/dl or more”) (NZB/W F1 female mice [3]; 10 mg/kg dosed group) was 60%, the “incidence rate … of 300 mg/dl or more” value (NZB/W F1 female mice [3]; 30 mg/kg dosed group) was 6.7% and the “incidence rate … of 300 mg/dl or more” value (NZB/W F1 female mice [3]; 50 mg/kg dosed group) was 0%. The “UP/C (ratio of urine protein:creatine)” value (NZB/W F1 female mice [3]; 36-week old, all the experimental groups) was “remarkably decreased”, the UP/C value (NZB/W F1 female mice [3]; 42-week old, all experimental groups except the 10 mg/kg dosed group, vs negative control) was “decreased more” and the “incidence rate of severe proteinuria” value (NZB/W F1 female mice [3]; experimental groups, 24 to 42 week after birth) was “remarkably improved”. For the same compound, the “level of C3 depositions in kidney” value (NZB/W F1 female mice [4]; 50 mg/kg dosed group) was “remarkably decreased”, the “level of IgG depositions in kidney” value (NZB/W F1 female mice [4]; 50 mg/kg dosed group) was “remarkably decreased” and the “level of C3 depositions in kidney” value (NZB/W F1 female mice [4]; experimental groups) was “decreased”. The “level of IgG depositions in kidney” value (NZB/W F1 female mice [4]; experimental groups) was “decreased”, the “ratio of pre B and pro B cells in marrow” value (NZB/W F1 female mice [5]) was “significant change in the ratio of pre B and pro B cells was not observed” and the “concentration of IgG1 in serum” value (NZB/W F1 female mice [6]) was “decreased”. The “concentration of IgG2a in serum” value (NZB/W F1 female mice [6]) was “decreased”, the “concentration of IgG2b in serum” value (NZB/W F1 female mice [6]) was “decreased” and the “concentration of IgG3 in serum” value (NZB/W F1 female mice [6]) was “decreased”. For the same compound, the “concentration of IgM in serum” value (NZB/W F1 female mice [6]) was “remarkably decreased”, the ALP (NZB/W F1 female mice [7]; group D, 10 mg/kg/day i.p.) was 187.44 ± 20.75 U/I and the ALT (NZB/W F1 female mice [7]; group D, 10 mg/kg/day i.p.) was 18.10 ± 1.72 U/I. For the same compound, the AST (NZB/W F1 female mice [7]; group D, 10 mg/kg/day i.p.) was 44.20 ± 3.19 U/I, the Albumin (NZB/W F1 female mice [7]; group D, 10 mg/kg/day i.p.) was 1.91 ± 0.14 g/dL and the CPK (NZB/W F1 female mice [7]; group D, 10 mg/kg/day i.p.) was 86.70 ± 17.99 U/I. The Ca (NZB/W F1 female mice [7]; group D, 10 mg/kg/day i.p.) was 10.08 ± 0.40 mg/dL, the Glucose (NZB/W F1 female mice [7]; group D, 10 mg/kg/day i.p.) was 162.56 ± 9.36 mg/dL and the TBIL (NZB/W F1 female mice [7]; group D, 10 mg/kg/day i.p.) was 0.22 ± 0.03 mg/dL. It also gave a TCHOL (NZB/W F1 female mice [7]; group D, 10 mg/kg/day i.p.) of 193.60 ± 34.55 mg/dL, a TG (NZB/W F1 female mice [7]; group D, 10 mg/kg/day i.p.) of 241.00 ± 35.25 mg/dL and a TP (NZB/W F1 female mice [7]; group D, 10 mg/kg/day i.p.) of 4.74 ± 0.20 g/dL. For the same compound, the ALP (NZB/W F1 female mice [7]; group E, 30 mg/kg/day i.p.) was 155.92 ± 5.53* U/I, the ALT (NZB/W F1 female mice [7]; group E, 30 mg/kg/day i.p.) was 20.79 ± 0.78* U/I and the AST (NZB/W F1 female mice [7]; group E, 30 mg/kg/day i.p.) was 55.21 ± 5.17* U/I. For the same compound, the Albumin (NZB/W F1 female mice [7]; group E, 30 mg/kg/day i.p.) was 2.19 ± 0.11 g/dL, the CPK (NZB/W F1 female mice [7]; group E, 30 mg/kg/day i.p.) was 84.71 ± 8.39 U/I and the Ca (NZB/W F1 female mice [7]; group E, 30 mg/kg/day i.p.) was 9.65 ± 0.19 mg/dL. For the same compound, the Glucose (NZB/W F1 female mice [7]; group E, 30 mg/kg/day i.p.) was 191.29 ± 7.33* mg/dl, the TBIL (NZB/W F1 female mice [7]; group E, 30 mg/kg/day i.p.) was 0.26 ± 0.03 mg/dL and the TCHOL (NZB/W F1 female mice [7]; group E, 30 mg/kg/day i.p.) was 140.07 ± 14.48 mg/dL. The TG (NZB/W F1 female mice [7]; group E, 30 mg/kg/day i.p.) was 240.86 ± 56.19* mg/dl, the TP (NZB/W F1 female mice [7]; group E, 30 mg/kg/day i.p.) was 5.21 ± 0.19 g/dL and the ALP (NZB/W F1 female mice [7]; group F, 50 mg/kg/day i.p.) was 153.08 ± 4.78 U/I. The ALT (NZB/W F1 female mice [7]; group F, 50 mg/kg/day i.p.) was 29.07 ± 3.26* U/I, the AST (NZB/W F1 female mice [7]; group F, 50 mg/kg/day i.p.) was 59.00 ± 15.00 U/I and the Albumin (NZB/W F1 female mice [7]; group F, 50 mg/kg/day i.p.) was 2.26 ± 0.09* g/dl. The CPK (NZB/W F1 female mice [7]; group F, 50 mg/kg/day i.p.) was 125.86 ± 47.35 U/I, the Ca (NZB/W F1 female mice [7]; group F, 50 mg/kg/day i.p.) was 9.43 ± 0.16 mg/dL and the Glucose (NZB/W F1 female mice [7]; group F, 50 mg/kg/day i.p.) was 200.23 ± 3.91* mg/dl. For the same compound, the TBIL (NZB/W F1 female mice [7]; group F, 50 mg/kg/day i.p.) was 0.28 ± 0.04 mg/dL, the TCHOL (NZB/W F1 female mice [7]; group F, 50 mg/kg/day i.p.) was 129.57 ± 8.98 mg/dL and the TG (NZB/W F1 female mice [7]; group F, 50 mg/kg/day i.p.) was 183.29 ± 15.00 mg/dL. For the same compound, the TP (NZB/W F1 female mice [7]; group F, 50 mg/kg/day i.p.) was 5.35 ± 0.16* g/dl, the “decrease of ratio of CD138+ cells” value (NZB/W F1 female mice [8]; 10 mg/kg dosed group, vs negative control) was 21.2% and the “decrease of ratio of CD138+ cells” value (NZB/W F1 female mice [8]; 30 mg/kg dosed group, vs negative control) was 25.2%. For the same compound, the “decrease of ratio of CD138+ cells” value (NZB/W F1 female mice [8]; 50 mg/kg dosed group vs negative control) was 31.6%.
